Like-named read-outs stand apart in the source and are kept apart here.
How the values were obtained:
Type in all cases: cell-based
[1] = system: D341 Med (cerebellar medulloblastoma cell); assay: Cell viability assay (Promega CellTiter-Glo), inhibitory effect on D341 Med; details: Homo sapiens, 72 h, 3 days of culture, read-out: inhibitory effect on brain cell line D341 Med (IC50)
Experimental: (§1) The inhibitory effect of the compounds prepared in the Examples of the present invention on various brain tumor cell lines was detected using cell viability assay reagent.
(§2) Cell viability was detected using the Promega CellTiter-Glo kit, cell viability was determined by directly measuring intracellular ATP content. In the experiment, the IC50 value of the compounds prepared in the Examples of the present invention on various brain tumor cell lines was detected.
(§3) Each tumor cell was cultured in relevant medium. After cell passage, the gradient diluted compounds prepared in the Examples of the present invention was added. After 3 days of culture, the relevant IC50 (50% inhibiting concentration) was measured. The name, source and culture conditions of each tumor cell line were as follows:
Cell line D341 Med (ATCC, No. HTB-187) was cultured in 20% fetal bovine serum-containing EMEM medium (+P/S).

[2] = system: Kelly (brain neuroblastoma cell); assay: Cell viability assay (Promega CellTiter-Glo), inhibitory effect on Kelly; details: Homo sapiens, 72 h, 3 days of culture, read-out: inhibitory effect on brain cell line Kelly (IC50)
Experimental: as §1, §2, §3
Cell line Kelly (ECACC, No. 92110411) was cultured in 10% fetal bovine serum and 2 mM glutamine-containing RPMI1640 medium.

[3] = system: sh-DNMT1 NCI-H82 cell (DNMT1 knocked down NCI-H82); assay: Cell viability assay (Promega CellTiter-Glo), inhibitory effect on sh-DNMT1 NCI-H82 cell; details: Homo sapiens, NCI-H82 with DNMT1 knocked down by shRNA
Experimental: (§4) The role of expression level of NNMT gene and DNMT1 in the sensitivity of NCI-H82 cell to the compounds prepared in the Examples of the present invention was determined
(§5) The expression of NNMT protein in NCI-H82 cell was overexpressed by inserting the NNMT gene into NCI-H82 cell using a viral vector, and the NNMT protein-overexpressing NCI-H82 cell (ov-NNMT NCI-H82 cell) was obtained. The expression of DNMT1 in NCI-H82 cell was knocked down transfecting (the by shRNA nucleotide sequence of shRNA was […] TTTTTG (SEQ ID No: 2)) using a viral vector, and the NCI-H82 cell with low expression of DNMT1 protein (sh-DNMT1 NCI-H82 cell) was obtained. The control NCI-H82 cell (Con-NCI-H82 cell) was obtained by transfecting NCI-H82 cell with empty virus vector without carrying NNMT gene and shRNA. The expressing content of NNMT protein and DNMT1 protein in the Con-NCI-H82 cell, the expressing content of NNMT protein in the ov-NNMT NCI-H82 cell, and the expressing content of DNMT1 protein in the sh-DNMT1 NCI-H82 cell were detected using Western Blot assay (as shown in FIG. 15 and FIG. 16), it could be seen from FIG. 15 and FIG. 16 that the NNMT protein was overexpressed in the ov-NNMT NCI-H82 cell and the expression of DNMT1 protein was knocked down (i.e, low expression) in the sh-DNMT1 NCI-H82 cell compared with the expression level of NNMT protein and DNMT protein in the Con-NCI-H82 cell.

[4] = system: G-401 (human renal carcinoma Wilms cell); assay: Cell viability assay (Promega CellTiter-Glo), inhibitory effect on G-401; details: 72 h, 3 days of culture
Experimental: (§6) The inhibitory effect of the compounds prepared in the Examples of the present invention on various tumor cell lines was detected using cell viability assay reagent.
(§7) Cell viability was detected using the Promega CellTiter-Glo kit, cell viability was determined by directly measuring intracellular ATP content. In the experiment, the ICso value of the compounds prepared in the Examples of the present invention on various tumor cell lines was detected.
as §3
Cell line G-401 (ATCC, No. CRL-1441) was cultured in 10% fetal bovine serum-containing McCoy's 5a medium (+P/S).

[5] = system: ov-NNMT NCI-H82 cell (NNMT protein-overexpressing NCI-H82); assay: Cell viability assay (Promega CellTiter-Glo), inhibitory effect on ov-NNMT NCI-H82 cell; details: Homo sapiens
Experimental: as §4, §5

[6] = system: NB-1 (brain neuroblastoma cell); assay: Cell viability assay (Promega CellTiter-Glo), inhibitory effect on NB-1; details: Homo sapiens, 72 h, 3 days of culture, read-out: inhibitory effect on brain cell line NB-1 (IC50)
Experimental: as §1, §2, §3
Cell line NB-1 (ATCC, No. HTB-131) was cultured in 10% fetal bovine serum-containing Leibovitz's L-15 medium (+P/S).

[7] = system: CFPAC-1 (human pancreatic cancer cell); assay: Cell viability assay (Promega CellTiter-Glo), inhibitory effect on CFPAC-1; details: 72 h, 3 days of culture
Experimental: as §6, §7, §3
Cell line CFPAC-1 (ATCC, No. CRL-1918) was cultured in 10% fetal bovine serum-containing IMDM medium (+P/S).

[8] = system: GB-1 (human brain glioblastoma cell); assay: Cell viability assay (Promega CellTiter-Glo), inhibitory effect on GB-1; details: 72 h, 3 days of culture
Experimental: as §6, §7, §3
Cell line GB-1 (JCRB, No. IFO50489) was cultured in 10% fetal bovine serum-containing DMEM medium (+P/S).
as §1, §2

[9] = system: MDA-MB-453 (breast cancer cell); assay: Cell viability assay (Promega CellTiter-Glo), inhibitory effect on MDA-MB-453; details: Homo sapiens, 72 h, 3 days of culture
Experimental: as §6, §7, §3
Cell line MDA-MB-453 (ATCC, No. HTB-131) was cultured in 10% fetal bovine serum-containing Leibovitz's L-15 medium (+P/S).

[10] = system: 786-O (clear cell renal cell adenocarcinoma cell); assay: Cell viability assay (Promega CellTiter-Glo), inhibitory effect on 786-O; details: Homo sapiens, 786-0, 72 h, 3 days of culture
Experimental: as §6, §7, §3
Cell line 786-0 (ATCC, No. CRL-1932) was cultured in 10% fetal bovine serum-containing RPMI1640 medium (+P/S).

[11] = system: SF126 (human glioblastoma multiforme cell); assay: Cell viability assay (Promega CellTiter-Glo), inhibitory effect on SF126
Experimental: as §6, §7, §3
Cell line SF126 (JCRB, No. IFO50286) was cultured in 10% fetal bovine serum-containing EMEM medium (+P/S).
as §1, §2

[12] = system: NCI-H82 (human small cell lung cancer cell); assay: Cell viability assay (Promega CellTiter-Glo), inhibitory effect on NCI-H82; details: 72 h, 3 days of culture
Experimental: as §6, §7, §3
Cell line NCI-H82 (ATCC, No. HTB-175) was cultured in 10% fetal bovine serum-containing RPMI1640 medium (+P/S).

[13] = system: Con-NCI-H82 cell (NCI-H82 transfected with empty virus vector); assay: Cell viability assay (Promega CellTiter-Glo), inhibitory effect on Con-NCI-H82 cell; details: Homo sapiens; NCI-H82 transfected with empty virus vector (control); CellTiter-Glo; read-out: inhibitory effect on Con-NCI-H82 (IC50)
Experimental: as §4, §5

[14] = system: SW48 (human colon adenocarcinoma cell); assay: Cell viability assay (Promega CellTiter-Glo), inhibitory effect on SW48; details: 72 h, 3 days of culture
Experimental: as §6, §7, §3
Cell line SW48 (ATCC, No. CCL-231) was cultured in 10% fetal bovine serum-containing Leibovitz's L-15 medium (+P/S).

[15] = Table 3, read-out: inhibitory effect on GB-1 (IC50)
[16] = Table 4, read-out: inhibitory effect on brain cell line GB-1 (IC50)
[17] = 72 h, SF-126, 3 days of culture, Table 3, read-out: inhibitory effect on SF-126 (IC50)
[18] = SF-126, 72 h, SF126, 3 days of culture, Table 4, read-out: inhibitory effect on brain cell line SF126 (IC50)

| Compound | IC50 [1] [nM] | IC50 [2] [nM] | IC50 [3] [nM] | IC50 [4] [nM] | IC50 [5] [nM] | IC50 [6] [nM] | IC50 [7] [nM] | IC50 [8, 15] [nM] | IC50 [8, 16] [nM] | IC50 [9] [nM] | IC50 [10] [nM] | IC50 [11, 17] [nM] | IC50 [11, 18] [nM] | IC50 [12] [nM] | IC50 [13] [nM] | IC50 [14] [nM] |
| --- | --- | --- | --- | --- | --- | --- | --- | --- | --- | --- | --- | --- | --- | --- | --- | --- |
| COc1ccc2cc3[n+](cc2c1OC/C=C(\C)CCC=C(C)C)CCc1cc2c(cc1-3)OCO2 [compound AB31737] | 400 | 360 | 940 | 170 | 730 | 20 | 4600 | 2660 | 2660 | 90 | 2340 | 4140 | 4140 | 240 | 240 | 200 |
| CCCCCCCCNc1c(OC)ccc2cc3[n+](cc12)CCc1cc2c(cc1-3)OCO2 [compound AB31739] | 860 | 640 | 1550 | 530 | 950 | 90 | 6070 | 3970 | 3970 | 370 | 3050 | 3570 | 3570 | 450 | 450 | 430 |
| COc1ccc2cc3[n+](cc2c1NCCc1ccccc1)CCc1cc2c(cc1-3)OCO2 [compound AB31740] | 530 | 840 | 1570 | 930 | 1550 | 80 | 12400 | 7740 | 7740 | 200 | 5130 | 7770 | 7770 | 490 | 490 | 340 |
| COc1ccc2c(Cc3ccc(C(C)(C)C)cc3)c3[n+](cc2c1OC)CCc1cc2c(cc1-3)OCO2 [compound AB31748] | 670 | 460 | 910 | 320 | 780 | 210 | 4950 | 3210 | 3210 | 320 | 3930 | 3530 | 3530 | 320 | 320 | 420 |
| CCCCc1c2[n+](cc3c(OC)c(OC)ccc13)CCc1cc3c(cc1-2)OCO3 [compound AB31757] | 2820 | 1500 | 3820 | 740 | 3320 | 150 | 29900 | 17500 | 17500 | 680 | 15200 | 16000 | 16000 | 880 | 880 | 650 |
| CCCCCc1c2[n+](cc3c(OC)c(OC)ccc13)CCc1cc3c(cc1-2)OCO3 [compound AB31758] | 980 | 590 | 1380 | 420 | 920 | 120 | 8320 | 6470 | 6470 | 400 | 5410 | 5140 | 5140 | 360 | 360 | 490 |
| CCCCCCc1c2[n+](cc3c(OC)c(OC)ccc13)CCc1cc3c(cc1-2)OCO3 [compound AB31759] | 850 | 410 | 1180 | 310 | 640 | 120 | 8150 | 3470 | 3470 | 310 | 3180 | 3940 | 3940 | 270 | 270 | 310 |

Reference: US20250195502A1, “APPLICATION OF TETRACYCLIC COMPOUND IN TREATMENT OF TUMORS” (SHANGHAI SHIJIANG BIOTECHNOLOGY CO., LTD, priority 2022, published 2025)
